# Assay results taken from ChEMBL document CHEMBL3507680, “University of Dundee, Gates Library screen for HepG2 cell viability”.
# Assay: Human HepG2 cell viability assay in 384 well format
# Type: toxicity, cell-based
# Set-up: dose 125 nL, time 70.5 hour; concentration not given beside the values
# Details: HepG2 cells, read-out: Inhibition
row,Compound,cytotoxicity at 70.5 h [%]
1,Cc1ccc(C(=O)N2CCC[C@@H]2Cn2nnc3c(O)nc(C)nc32)cc1,-2.37
2,COCCN1CCC2(CC1)CC(Nc1ccc(C)nn1)CO2 (stereo unspecified),-2.32
3,COc1ccc(CN2CCn3cc(Cn4cccn4)nc3C2)cc1,3.13
4,CC(C)(C)CC(=O)NCC(=O)NS(=O)(=O)c1cccnc1,2.71
5,Cc1ccc(CN2CC[C@H]3OCC[C@@]3(C(=O)N3CCCO3)C2)s1,-5.95
6,c1cnc(N2CCCC(c3cc4cccnc4[nH]3)C2)nc1 (stereo unspecified),-8.49
7,CNC(=O)[C@@H]1C[C@H](N)CN1Cc1cc2cc(OC)ccc2nc1O,-8.56
8,COc1cccc(OCCNS(=O)(=O)Cc2ccccc2)c1,19.4
9,COCc1nc(CNc2cc(C)nc(N3CCCCC3)n2)no1,-7.86
10,CN(CCc1ccccc1)Cc1c(C2CCNCC2)[nH]c2ncccc12,-6.11
11,CC[C@@H]1N(Cc2ccc(F)cc2)CCC[C@]12CCC(=O)N2C,-9.15
12,Cc1cnc(-c2nc(C3CCN(Cc4ccccc4O)CC3)no2)cn1,-4.91
13,CCN1CC(CN(C)Cc2nc(-c3cccc(C)c3)oc2C)CC1=O (stereo unspecified),28.2
14,CCCn1ncc(C(=O)NCc2n[nH]c3c2CCCCC3)c1C,-13.2
15,CC(C)(C)OC(=O)NCCNC(=O)c1ccc(-c2ccco2)[nH]c1=O,-0.98
16,O=S(=O)(c1ccccc1)N1CCCCC1c1cc[nH]n1 (stereo unspecified),21.8
17,Cc1cc(S(=O)(=O)Nc2cccc(OC(F)F)c2)sc1C(=O)O,16.4
18,CCc1nc(C2CCCN2C(=O)c2cc(Cl)c[nH]2)no1 (stereo unspecified),-2.89
19,CC(=O)c1cn(CC(=O)NC(C(=O)O)C(C)C)c2ccccc12 (stereo unspecified),0.278

row,Compound,cytotoxicity at 70.5 h [%]
1,CCNc1ncc(C(=O)NCCc2csc(-c3ncccn3)n2)cn1,5.7
2,CC(C)(C)c1cn2nc(N3CCCCC3Cn3cncn3)sc2n1 (stereo unspecified),4.02
3,COC(=O)c1cc(C(=O)N2CCCCC2C)n(-c2ccccc2)n1 (stereo unspecified),19.1
4,c1coc(CN2CC[C@H]3O[C@@H](COCC4CC4)CC[C@H]32)c1,7.95
5,CC1(C(=O)NCc2cccnc2Oc2ccc(F)cc2F)CCCNC1 (stereo unspecified),-18.2
6,CC(C)CNC(=O)CC1(Cn2cnnn2)CCCCC1,-12.5
7,Cc1ccc(N2CC[C@H]3OCC[C@@]3(C(=O)N(C)C)C2)nn1,-8.34
8,COc1c(C)cnc(CSc2nnc(C)s2)c1C,-5.43
9,Nc1nccc(C2CCCN2CCc2ccccc2)n1 (stereo unspecified),-1.57
10,Cc1cc(C)n(C2=NC(NCCC(C)C)c3c(sc4c3CCCC4)N2)n1 (stereo unspecified),1.07
11,Cc1cc(C(=O)Nc2ccc(CN3CCOCC3)cn2)n(C)n1,-5.67
12,COc1ccc(CN2CC[C@@H]3[C@H]2CCC(=O)N3c2cnn(C)c2)cc1,5.08
13,COc1cccn(CC(=O)N2CCCC3(CCCCC3)C2)c1=O,-4.6
14,CN(C)CC(=O)N1CCc2ncnc(-c3ccoc3)c2CC1,-0.0529
15,N#Cc1cn(CCN2CCc3ccccc3C2)c(=O)[nH]c1=O,0.215
16,NC(=O)COc1cccc(C(=O)N2CCCC(n3cccn3)C2)c1 (stereo unspecified),28.9
17,Cc1cnn(CC2CCCN2Cc2cc(=O)n3c(C)csc3n2)c1 (stereo unspecified),-4.63
18,COc1cccc(NC(C(N)=O)c2ccc(Br)cc2)c1 (stereo unspecified),-10.7
19,CCc1noc(C(C)N(C)CC(=O)Nc2ccccc2Cl)n1 (stereo unspecified),-89.8

row,Compound,cytotoxicity at 70.5 h [%]
1,N#Cc1cccc(CN2CC3(CCCCN3c3cncnc3)CC2=O)c1 (stereo unspecified),-0.331
2,Cc1nc(CN(C)S(=O)(=O)c2ccccc2C(F)(F)F)no1,-5.33
3,CNC(=O)C1CCCN(C(=O)C2CCC2)C1 (stereo unspecified),-11.6
4,CCCN(Cc1ccccc1)Cn1nc(C)c2c(C)onc2c1=O,0.0673
5,CC(=O)N1CCN(CC(=O)NCCCN(C)c2ccccc2)CC1,-7.53
6,O=C(c1cccc(CNS(=O)(=O)c2ccccc2F)c1)N1CCCC1,-16.2
7,CC(O)CN1CCN(C(=O)c2ccn(-c3cccc(Cl)c3)n2)CC1 (stereo unspecified),13.7
8,CC(C#N)(NC(=O)COc1ccccc1Br)C1CC1 (stereo unspecified),8.66
9,CCc1nc(NCCCOC)c2c(n1)c(C)nn2C,-13.4
10,CC1CN(C)CCN1C(=O)c1ccn(-c2cccc(F)c2)n1 (stereo unspecified),-15.8
11,CC(NC(=O)C1CC1)c1cc(O)nc(-c2cccnc2)n1 (stereo unspecified),26.9
12,Cc1nc(N2CCC(CC(=O)N3CCCC3)CC2)c2cnn(C)c2n1,-3.28
13,O=C(NCc1ccco1)[C@@H]1CCO[C@@H]2CCN(C3CCOCC3)C[C@H]21,4.93
14,CC(C)NC(=O)N1CCC2(C1)CN(c1ccsc1)C(=O)CN2C (stereo unspecified),-9.03
15,Cn1cnc2c1CCN(Cc1noc(-c3ccccc3)n1)C2,-6.44
16,Cc1nn(C)c2cn(CC(=O)NC3CCSCC3)nc12,-0.476
17,CN(Cc1cc(-c2ccccc2)no1)CC1CCCN1c1cccnn1 (stereo unspecified),-8.09
18,Cn1cc(CCC(=O)N2C[C@@H]3CC[C@H](C2)N(Cc2ccccn2)C3)cn1,-14
